In general, inhibition refers to the share of the control response that was lost under treatment.

The first test addresses T1, Recombinant human LTC4 synthase (Homo sapiens, UniProt Q16873).
T1 construct: made in house; host or cells: Pichia pastoris
T1 sequence (Q16873 1-150): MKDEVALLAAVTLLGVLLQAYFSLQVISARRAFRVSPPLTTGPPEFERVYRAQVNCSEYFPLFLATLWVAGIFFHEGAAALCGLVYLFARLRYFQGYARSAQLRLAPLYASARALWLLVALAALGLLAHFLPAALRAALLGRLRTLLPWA
Briefly: LTC4 synthase in vitro assay (HTRF detection of LTC4). The test is classed as biochemical. Conditions: compound concentration 1 μM; HTRF method. Put shortly: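 Pichia-expressed recombinant human LTC4 synthase at 0.5 μg/ml total protein in PBS pH 7.4 with 5 mM GSH, preincubated 10 min at RT with inhibitor (10 μM final). LTA4 (2.5 μM final) was then added for 5 min at RT. LTC4 formed was read by HTRF.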
A general note: Time-resolved FRET reads energy transfer from a long-lived donor to a nearby acceptor.
As for `O=C(Cc1ccc(Cl)cc1)Nc1ccc(Oc2ccc(NC(=O)c3ccc(C(F)(F)F)cc3)c(C(=O)O)c2)cc1` [8:7, 5-[(4-(2-(4-chlorophenyl)acetyl-amino)phenoxy)]-2-(4-trifluoro-methylbenzoylamino)benzoic acid], the “% inh.” value is listed as 64 (1 μM) %.

The test is the same for the next values; noted with them: total concentration of title compound in the assay 10 μM; HTRF method.
On to `O=C(Nc1ccc(S(=O)(=O)c2ccc(NC(=O)c3cccc(Cl)c3)c(C(=O)O)c2)cc1C(=O)O)c1cccc(Cl)c1` [16:1, 2-(3-chlorobenzamido)-5-(4-(3-chlorobenzamido)-3-carboxyphenylsulfonyl)-benzoic acid], for which the inhibition at 10 µM is 98%.

Consider `O=C(Nc1ccc(Oc2ccc(NC(=O)c3cccc(Cl)c3)c(C(=O)O)c2)cc1C(=O)O)c1ccc(SC(F)(F)F)cc1` [2:1, 5-[3-carboxy-4-(4-(trifluoromethylthio)-benzamido)-phenyloxy]-2-(3-chlorobenz-amido)benzoic acid], for which the “% inh.” value stood at 98%.

Take `CCCCc1ccc(C(=O)Nc2ccc(Oc3ccc(N(C(=O)c4ccc(CCCC)cc4)c4ccc(F)cc4)cc3)cc2C(=O)O)cc1` [12:3, 5-(4-((N-4-fluorophenyl)4-butylbenzamido)phenoxy)-2-(4-butylbenzamido)benzoic acid]: the inhibition at 10 µM was determined as 83%.

Consider `CN(C)c1ccc(C(=O)Nc2ccc(Oc3ccc(NC(=O)c4ccc(C(F)(F)F)cc4)c(C(=O)O)c3)cc2)cc1.Cl` [8:6, 5-[4-(4-dimethylaminobenzoyl-amino)phenoxy]-2-(4-trifluoro-methylbenzoylamino)benzoic acid hydrochloride], for which the “% inh.” value stood at 97%.

`COc1ccc(S(=O)(=O)N(C)c2ccc(Oc3ccc(NC(=O)c4cc(Cl)cnc4Cl)c(C(=O)O)c3)cc2)cc1` [11:21, 2-[(2,5-Dichloropyridine-3-carbonyl)amino]-5-{4-[(4-methoxybenzenesulfonyl)-methylamino]phenoxy}benzoic acid]: the inhibition at 10 µM came to 96%.

Consider `O=C(Nc1ccc(Sc2ccc(NC(=O)c3ccc(Cl)cc3Cl)c(C(=O)O)c2)cc1)c1ccc(C(F)(F)F)cc1` [Example 35:1, 2-(2,4-Dichlorobenzoylamino)-5-[4-(4-trifluoromethylbenzoylamino)phenyl-sulfanyl]benzoic acid], for which the inhibition at 10 µM stood at 99%.

As to `O=C(Nc1ccc(Cl)cc1)Nc1ccc(Sc2ccc(NC(=O)Nc3ccc(Cl)cc3)c(C(=O)O)c2)cc1` [14:5, 2-[3-(4-chlorophenyl)-ureido]-5-{4-[3-(4-chlorophenyl)-ureido]phenylsulfanyl}-benzoic acid], the inhibition at 10 µM came out at 97%.

As to `O=C(O)c1cc(Oc2ccc(Nc3ccc([N+](=O)[O-])cc3)c(C(=O)O)c2)ccc1Nc1ccc(F)cc1` [1:6, 5-[3-carboxy-4-(4-nitrophenyl-amino)phenyloxy]-2-(4-fluoro-phenylamino)benzene-carboxylic acid], the inhibition at 10 µM came out at 100%.

Turning to `CCCCc1ccc(C(=O)Nc2ccc(Oc3ccc(NC(=O)c4ccc(C(F)(F)F)cc4)c(C(=O)O)c3)cc2)cc1` [8:4, 5-[4-(4-(butyl)benzoylamino)-phenoxy]-2-(4-trifluoromethyl-benzoylamino)benzoic acid], the inhibition at 10 µM is 89%.

With `CCCCOc1ccc(S(=O)(=O)Nc2ccc(Oc3cccc(C(=O)NS(=O)(=O)c4ccc(F)c(F)c4)c3)cc2C(=O)O)cc1` [20:5, 2-(4-Butoxy-benzenesulfonylamino)-5-[3-(3,4-difluoro-benzenesulfonyl-aminocarbonyl)-phenoxy]-benzoic acid], the inhibition at 10 µM was determined as 97%.

As for `CN(c1cc(Oc2ccc(NS(=O)(=O)c3cccc(Cl)c3Cl)cc2)cc(C(=O)O)c1)c1ccc(F)c(F)c1` [18:1, 3-[4-(2,3-dichloro-benzenesulfonylamino)-phenoxy]-5-[(3,4-difluoro-phenyl)-methyl-amino]-benzoic acid], the inhibition at 10 µM came out at 97%.

As for `O=C(O)Cc1cc(Oc2ccc(NC(=O)c3ccc(C(F)(F)F)cc3F)cc2)ccc1NC(=O)c1cccc(Cl)c1` [17:1, {2-(3-chloro-benzoylamino)-5-[4-(2-fluoro-4-trifluoromethyl-benzoylamino)-phenoxy]-phenyl}-acetic acid], the inhibition at 10 µM is 96%.

(Values after US20110071197A1, “BIS-ARYL COMPOUNDS FOR USE AS MEDICAMENTS” (priority 2008, published 2011).)
